1 compound from article PMC5316807, “Protective role of fructokinase blockade in the pathogenesis of acute kidney injury in mice” (Nature Communications, 2017) can be followed below.

Broadly, the IC50 is the concentration that inhibits the measured activity by half.

The test deals with T1, fructokinase (ketohexokinase, KHK) (Homo sapiens, UniProt P50053).
T1 sequence (P50053 1-298): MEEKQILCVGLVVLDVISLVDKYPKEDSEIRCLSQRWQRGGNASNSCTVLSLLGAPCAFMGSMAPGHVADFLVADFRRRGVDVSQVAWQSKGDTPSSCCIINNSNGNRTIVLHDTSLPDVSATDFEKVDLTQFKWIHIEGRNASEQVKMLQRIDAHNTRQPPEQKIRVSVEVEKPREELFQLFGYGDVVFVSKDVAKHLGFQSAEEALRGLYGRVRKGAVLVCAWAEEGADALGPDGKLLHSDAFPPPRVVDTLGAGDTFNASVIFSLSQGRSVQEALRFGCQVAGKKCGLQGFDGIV
Description: fructose-dependent ATP depletion assay in HK-2 (human proximal tubule) cell lysates, KHK-deficient HK-2 cells as background control. Type of test: biochemical.

`O=c1cc(-c2ccc(O)c(O)c2)oc2cc(O)cc(O)c12` [luteolin] displayed an IC50 of 11.2 µM.
